Common to all, as to type: cell-based
Test [1] addresses T1, TPM3-TRKA (Homo sapiens, UniProt P04629).
T1 construct: TPM3 (fusion partner, N-terminal part); expressed in transfected cells; the other entry of the earlier key: TPM3 (P06753, Tropomyosin alpha-3 chain)
Put plainly: Engineered Ba/F3 cell proliferation inhibition (MTS), TPM3-TRKA. As to conditions: Ba/F3-TPM3-TRKA cells, 72 h. The text has this:
(§1) MTS testing kit was purchased from Promega (Madison, Wis., USA). The RPMI-1640, Fetal bovine serum and Penicillin-Streptomycin were purchased from Gibco (San Francisco, Calif., USA). Dimethyl sulfoxide (DMSO) and Puromycin were purchased from Sigma (St. Louis, Mo., USA). Mouse interleukin-3 (IL-3) was purchased from Cell signaling Technology (Boston, Mass., USA).
(§2) To investigate whether a compound is able to inhibit the activity of TRK fusion mutation in cells, a mechanism-based assay using engineered Ba/F3 cell lines stably overexpressing oncogenic rearrangement or gene mutation of TRK (TPM3-TRKA, TPM3-TRKA-G595R, AFAP1-TRKB, ETV6-TRKC and ETV6-TRKC-G623R) were developed. In this assay, inhibition of TRK fusion mutation was detected by the cell proliferation inhibition of engineered Ba/F3 cells. Engineered Ba/F3 cells were cultured in culture flasks to 40-80% confluence in RPMI-1640 supplemented with 10% fetal bovine serum, 2 ug/mL puromycin. Cells were collected and plated onto 96-well plates at desired cell density (Ba/F3-TPM3-TRKA: 3×10^4/mL, Ba/F3-TPM3-TRKA-G595R: 1×10^5/mL, Ba/F3-AFAP1-TRKB: 1×10^5/mL, Ba/F3-ETV6-TRKC: 3×10^4/mL, Ba/F3-ETV6-TRKC-G623R: 3×10^4/mL). Plates were incubated at 37° C., with 5% CO2 for 4 h. Compounds were then added to the plates with the final compound concentrations of 10000, 3333, 1111, 270, 123, 41.2, 13.7, 4.6 and 1.5 nM. Plates were incubated at 37° C., with 5% CO2 for 72 h. A mixture of 20 μl MTS/100 μl medium were added to each well and the plates were incubated at 37° C., with 5% CO2 for exactly 2 h. The reaction was stopped by adding 25 μl of 10% SDS per well. The absorbance was measured at 490 nm and 650 nm (reference wavelength). IC50 was calculated using GraphPad Prism 5.0 software.

Test [2] has as its system KM12 cells. Description: KM12 cells proliferation inhibition (MTS), mechanism-based TRK assay. As to conditions: Homo sapiens, 72 h.
Text: as §1
To investigate whether a compound is able to inhibit the activity of TRK in cells, a mechanism-based assay using KM12 cells was developed. In this assay, inhibition of TRK was detected by the inhibition of KM12 cells proliferation. KM12 cells were cultured in culture flasks to 40-80% confluence in RPMI-1640 plus 10% fetal bovine serum. Cells were collected and plated onto 96-well plates at 1000 cells/well. Plates were incubated at 37° C., with 5% CO2 for 4 h. Compounds were added to the plates, the final compound concentrations were […], 123.5, 41.2, 13.7, 4.6 and 1.5 nM. Place plates at 37° C., with 5% CO2 for KM12 cells 72 h. 20 μl MTS/100 μl medium mixture solution were added to each well and incubate the plates for exactly 2 h. Stop the reaction by adding 25 μl 10% SDS per well. Measure absorbance at 490 nm and 650 nm (reference wavelength). IC50 was calculated using GraphPad Prism 5.0.

Test [3] addresses T2, AFAP1-TRKB (Homo sapiens, UniProt Q16620).
T2 construct: AFAP1 (fusion partner, N-terminal part); expressed in transfected cells; the other entry of the earlier key: AFAP1 (Q8N556, Actin filament-associated protein 1)
Put plainly: Engineered Ba/F3 cell proliferation inhibition (MTS), AFAP1-TRKB. The following applies: Ba/F3-AFAP1-TRKB cells, 72 h.
Text: as §1
as §2, with “Compounds were then added to the plates with the final compound concentrations of 10000, 3333, 1111, 270, 123, 41.2, 13.7, 4.6 and 1.5 nM. Plates were incubated at 37° C., with 5% CO2 for 72 h. A mixture of 20 μl MTS/100 μl medium were added to each well and the plates were incubated at 37° C., with 5% CO2 for exactly 2 h. The reaction was stopped by adding 25 μl of 10% SDS per well.” left out

Test [4] concerns the target T3, ETV6-TRKC (Homo sapiens, UniProt Q16288).
T3 construct: ETV6 (fusion partner, N-terminal part); expressed in transfected cells; the other entry of the earlier key: ETV6 (P41212, Transcription factor ETV6)
Description: Engineered Ba/F3 cell proliferation inhibition (MTS), ETV6-TRKC. The following applies: Ba/F3-ETV6-TRKC cells, 72 h.
Text: as §1, §2

Test [5] concerns the target T4, ETV6-TRKC-G623R (Homo sapiens, UniProt Q16288, G623R, cells depend on it).
T4 construct: fused on or other part: P41212 (Transcription factor ETV6)
Put plainly: Engineered Ba/F3 cell proliferation inhibition (MTS), ETV6-TRKC-G623R. As to conditions: 72 h, read-out: ETV6-TRKC-G623R IC50.
Text: as §1
as §2, with “Compounds were then added to the plates with the final compound concentrations of 10000, 3333, 1111, 270, 123, 41.2, 13.7, 4.6 and 1.5 nM. Plates were incubated at 37° C., with 5% CO2 for 72 h. A mixture of 20 μl MTS/100 μl medium were added to each well and the plates were incubated at 37° C., with 5% CO2 for exactly 2 h. The reaction was stopped by adding 25 μl of 10% SDS per well.” left out

The target in test [6] is T5, TPM3-TRKA-G595R (Homo sapiens, UniProt P04629, G595R).
T5 construct: TPM3 (fusion partner, N-terminal part); expressed in transfected cells; the other entry of the earlier key: TPM3 (P06753, Tropomyosin alpha-3 chain)
T5 sequence (P04629 510-796 G595R limits assumed): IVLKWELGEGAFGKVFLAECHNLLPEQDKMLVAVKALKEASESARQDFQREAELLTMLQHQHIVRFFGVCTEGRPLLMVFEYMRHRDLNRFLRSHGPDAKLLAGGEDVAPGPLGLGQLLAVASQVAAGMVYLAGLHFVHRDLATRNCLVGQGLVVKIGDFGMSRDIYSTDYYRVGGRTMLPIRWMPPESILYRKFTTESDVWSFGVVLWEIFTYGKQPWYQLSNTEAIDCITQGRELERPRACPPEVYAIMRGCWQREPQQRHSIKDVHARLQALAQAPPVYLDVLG
Put plainly: Engineered Ba/F3 cell proliferation inhibition (MTS), TPM3-TRKA-G595R. As to conditions: Ba/F3-TPM3-TRKA-G595R cells, 72 h.
Text: as §1, §2

The structures appear in SMILES notation.

Usually IC50 stands for the point on the concentration scale where inhibition reaches its midpoint. The low end stands for inhibition by little substance, the high end for a need for much substance.

T1 sequence (P04629 510-796 limits assumed): as the sequence (P04629 510-796 G595R limits assumed) above, with R86G counted along it
T3 sequence (Q16288 530-825 isoform Q16288-3 limits assumed): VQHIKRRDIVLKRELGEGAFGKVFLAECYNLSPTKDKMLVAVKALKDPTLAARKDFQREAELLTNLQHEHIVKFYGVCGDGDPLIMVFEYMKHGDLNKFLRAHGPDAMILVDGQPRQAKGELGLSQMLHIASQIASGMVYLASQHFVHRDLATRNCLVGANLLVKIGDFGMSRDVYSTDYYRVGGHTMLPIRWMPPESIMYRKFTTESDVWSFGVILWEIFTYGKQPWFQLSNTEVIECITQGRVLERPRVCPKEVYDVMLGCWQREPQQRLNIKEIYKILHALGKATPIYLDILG
T4 sequence (Q16288 whole entry G623R, the tested form may be a part): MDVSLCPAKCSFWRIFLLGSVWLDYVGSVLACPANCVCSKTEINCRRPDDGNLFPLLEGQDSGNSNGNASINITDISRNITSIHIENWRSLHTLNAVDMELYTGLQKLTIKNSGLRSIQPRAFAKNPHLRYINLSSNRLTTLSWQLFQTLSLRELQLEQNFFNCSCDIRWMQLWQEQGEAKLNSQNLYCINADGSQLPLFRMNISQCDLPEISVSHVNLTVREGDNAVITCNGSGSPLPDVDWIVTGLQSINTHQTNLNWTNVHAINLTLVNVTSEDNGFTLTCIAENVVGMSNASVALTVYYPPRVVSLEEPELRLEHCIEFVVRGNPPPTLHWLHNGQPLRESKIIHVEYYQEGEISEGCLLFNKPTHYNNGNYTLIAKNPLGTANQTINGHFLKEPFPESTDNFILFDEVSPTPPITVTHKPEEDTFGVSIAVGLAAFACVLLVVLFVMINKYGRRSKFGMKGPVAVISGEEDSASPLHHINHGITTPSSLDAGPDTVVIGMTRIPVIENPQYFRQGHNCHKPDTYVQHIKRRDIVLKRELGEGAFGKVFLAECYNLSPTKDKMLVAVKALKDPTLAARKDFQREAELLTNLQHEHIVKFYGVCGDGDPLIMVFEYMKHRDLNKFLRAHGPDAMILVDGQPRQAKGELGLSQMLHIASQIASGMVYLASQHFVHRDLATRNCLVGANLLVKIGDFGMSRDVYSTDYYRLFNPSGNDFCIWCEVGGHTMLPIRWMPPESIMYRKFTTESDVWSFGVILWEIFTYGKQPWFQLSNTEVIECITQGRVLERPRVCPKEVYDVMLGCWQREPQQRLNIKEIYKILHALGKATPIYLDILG
T2 sequence (Q16620 538-822 limits assumed): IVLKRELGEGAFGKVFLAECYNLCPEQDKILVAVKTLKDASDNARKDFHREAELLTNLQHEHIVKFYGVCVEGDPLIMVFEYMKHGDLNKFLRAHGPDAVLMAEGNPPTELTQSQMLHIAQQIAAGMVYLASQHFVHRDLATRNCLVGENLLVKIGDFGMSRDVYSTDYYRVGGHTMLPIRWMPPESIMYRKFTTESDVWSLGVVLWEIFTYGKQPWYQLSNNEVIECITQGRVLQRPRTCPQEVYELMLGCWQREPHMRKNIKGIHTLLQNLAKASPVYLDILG

Take `O=C(Nc1cnn2ccc(N3CC[C@H]4C[C@]43c3cc(F)ccc3F)nc12)N1CC[C@H](O)C1` [Example 1, (S)—N-(5-((1R,5S)-1-(2,5-difluorophenyl)-2-azabicyclo[3.1.0]hexan-2-yl)pyrazolo[1,5-a]pyrimidin-3-yl)-3-hydroxypyrrolidine-1-carboxamide]: the IC50 stood at 3 nM in test [1], 1 nM in test [2], 14 nM in test [3] and 1 nM in test [4].

Take `CC(C)c1nnc(-c2cnn3ccc(N4CC[C@H]5C[C@]54c4cc(F)ccc4F)nc23)s1` [Example 26, 2-(5-((1R,5S)-1-(2,5-difluorophenyl)-2-azabicyclo [3.1.0]hexan-2-yl)pyrazolo[1,5-a]pyrimidin-3-yl)-5-isopropyl-1,3,4-thiadiazole]: the IC50 in test [1] came to 2 nM; in test [2] it was 4 nM; in test [4] it was 1 nM; in test [6] it was 15 nM. The GI50 in test [5] came to 6 nM.

Turning to `CC(C)(C)c1nnc(-c2cnn3ccc(N4CC[C@H]5C[C@]54c4cc(F)ccc4F)nc23)s1` [Example 27, 2-(tert-butyl)-5-(5-((1R,5S)-1-(2,5-difluorophenyl)-2-azabicyclo[3.1.0]hexan-2-yl)pyrazolo[1,5-a]pyrimidin-3-yl)-1,3,4-thiadiazole], the IC50 in test [1] came out at 2 nM; in test [2], 11 nM; in test [4] it was 11 nM; in test [6], 21 nM. Besides, the GI50 in test [5] was 20 nM.

For `Cc1cccc(C(=O)Nc2cnn3ccc(N4CC[C@H]5C[C@]54c4cc(F)ccc4F)nc23)n1` [Example 16, N-(5-((1R,5S)-1-(2,5-difluorophenyl)-2-azabicyclo [3.1.0]hexan-2-yl)pyrazolo[1,5-a]pyrimidin-3-yl)-6-methylpicolinamide], the IC50 in test [1] amounted to 1 nM; in test [2], 1 nM; in test [4] it was 1 nM; in test [6] it was 5 nM.

Source of the values: patent US11459332B2, “Substituted 2-azabicyclo[3.1.0]hexanes as TRK kinases inhibitors” (FOCHON BIOSCIENCES, LTD., priority 2018, dated 2022).
